Experimental data: ChEMBL document CHEMBL3352324, “Progress in the discovery and development of heat shock protein 90 (Hsp90) inhibitors” (J Med Chem, 2014)

What was measured:
[1] = Drug metabolism in human liver microsomes; format: ADME; conditions: read-out: Drug metabolism
[2] = Antiproliferative activity against human colon cancer cells; format: functional, cell-based; conditions: Cancer cell lines
[3] = test system: MCF7; assay: Antiproliferative activity against human MCF7 cells; format: functional, cell-based
[4] = target: Heat shock protein HSP90 (Homo sapiens, UniProt P07900+P08238); assay: Inhibition of HSP90 (unknown origin); format: protein assay
[5] = test system: HUVEC; assay: Cytotoxicity against HUVEC; format: cell-based; conditions: Homo sapiens
[6] = Cytotoxicity against human ARPE19 cells; format: cell-based; conditions: ARPE-19
[7] = test system: Homo sapiens; assay: Toxicity in patient assessed as median survival time at 450 mg/m'2, iv administered per week; format: organism-based; conditions: in vivo

## O=C1CCCC/C=C/CCOC(=O)c2c(O)cc(O)c(Cl)c2C1
[1]
  metabolised: 90%
[2]
  IC50: 7.6 µM

## O=C(O[C@@H]1Cc2c(O)cc(O)cc2O[C@@H]1c1cc(O)c(O)c(O)c1)c1cc(O)c(O)c(O)c1 [EPIGALOCATECHIN GALLATE]
[3]
  IC50: 74 µM

## O=C1NCC/C=C/CCCC(C(=O)NCc2ccccc2)C(=O)Cc2c(Cl)c(O)cc(O)c21 (stereo unspecified)
[1]
  metabolised: 47%
[4]
  IC50: 0.2 µM
[2]
  IC50: 0.6 µM

## C[C@@H]1C[C@H]2O[C@@H]2/C=C\C=C\C(=O)Cc2c(Cl)c(O)cc(O)c2C(=O)O1 [RADICICOL]
[1]
  metabolised: 83%

## CO[C@H]1/C=C\C=C(/C)C(=O)NC2=C(c3ccccc3)C(=O)C(NCCN(C)C)=C(C[C@@H](C)C[C@H](OC)[C@H](O)[C@@H](C)/C=C(\C)[C@@H]1OC(N)=O)C2=O (stereo in doubt)
[5]
  IC50: < 5 µM
[6]
  IC50: < 5 µM

## CC(=O)Oc1ccc(C(=O)O[C@@H]2Cc3c(O)cc(O)cc3O[C@@H]2c2ccccc2)cc1CC=C(C)C
[3]
  IC50: 4 µM

## C=CCNC1=C2C[C@@H](C)C[C@H](OC)[C@H](O)[C@@H](C)/C=C(\C)[C@H](OC(N)=O)[C@@H](OC)/C=C\C=C(/C)C(=O)NC(=CC1=O)C2=O [TANESPIMYCIN]
[7]
  MST: 232 days
